# Experimental data reported in US4141972A, “Purine nucleoside 5'-phosphate (mono, di or tri) 3'(2')-diphosphates and processes for their preparation” (priority 1974, dated 1979).
# Experiments:
# [1] = tested on: L1210 cells; assay: Effect of nucleotides on the life span of mice inoculated with L1210 cells; assay type: in vivo; conditions: for 30 days survivors / MST (mean survival time) / T/C: L1210, mice
# Description: The characteristic of the said nucleotide pyrophosphotransferase is that it inhibits the growth of Hela S3, L1210 and L5178Y cells in culture at a relatively low concentration, 5 to 10 units/ml. […] The nucleotide or enzyme is combined with a conventional pharmaceutically acceptable nontoxic carrier for intraperitoneal administration.
# Tumor: L1210, Sloan-Kettering line, 10^5 cells/head, i.p.
# MST: Mean survival time
# [2] = tested on: nucleotide pyrophosphotransferase, enzymes obtained from the six actinomycetes (Streptomyces adephospholyticus A4668 ATCC 31122, St. aspergilloides ATCC 14808 …); assay: Inhibitory action of nucleosides, nucleotides, bases and general enzyme inhibitors on nucleotide pyrophosphotransferase; assay type: biochemical
# Description: (1) Inorganic phosphate determination by a modification of Nakamura's method: The standard reaction mixture contained 0.25 M glycine-NaOH buffer (pH 10.0), 0.2 ml.; 0.05 M MgCl2, 0.05 ml.; 0.05 M ATP, 0.05 ml.; the enzyme solution (to be diluted by buffer if necessary), 0.1 ml.; and distilled water, 0.1 ml. in a final volume of 0.5 ml. After incubation at 37° C. for 10 minutes, the reaction was terminated by adding 0.5 ml. of 0.2 N acetic acid, and chilling on ice. Immediately, 3 ml. of developing reagent (amidol-molybdate) was added and the mixture was allowed to stand for 10 minutes at 37° C. The optical density was measured at 750 nm and the moles of Pi released were calculated using the standard curve for Pi.
# The reaction mixture contained 20 mM adenosine-8-3H-triphosphate (2 mCi/m mole), 5 mM MgCl2, 62.5 mM glycine-NaOH buffer (pH 10.0) and 0.1 ml. of enzyme solution to give a total volume of 0.2 ml. The mixture was incubated at 37° C. for 10 minutes and the incubation was terminated by addition of 0.01 ml. of 1 N acetic acid. Twenty microliters of the reaction mixture were spotted on a polyethyleneimine (PEI) cellulose F thin layer sheet (E. Merck AG), dried and developed in 0.75 M KH2 PO4, pH 3.4, for two hours at room temperature. After chromatography the sheets were dried and exposed to ultraviolet light provided by a Manasul UV lamp to localize the pppApp and AMP formed. The spots on the chromatograms corresponding to pppApp and AMP were cut out and placed in a scintillation vial containing 0.5 ml. of 0.1 N HCl. Vials were boiled for 15 minutes to elute nucleotides adsorbed on the PEI-cellulose and radioactivity was measured by 10 ml. of BRAY Solution in a liquid scintillation counter. A unit of enzyme activity is defined as the amount of enzyme forming 1μ mole of pppApp or AMP per minute under the above condition.
# Inhibitory actions of 40 substances which are general enzyme inhibitors such as nucleosides, nucleotides and their bases were examined for their effect on the enzymes obtained from the six actinomycetes.
# [3] = 5 mg/kg.day i.p. once daily for 10 days
# [4] = 10 mg/kg.day i.p. once daily for 10 days
# [5] = 20 mg/kg.day i.p. once daily for 10 days
# [6] = BDF1 mice, L1210 i.p., i.p. once daily for 10 days
# [7] = other nucleic acids, concentration not given
# [8] = 10 mM each, non-substrate nucleic acids
structure (smiles),measurement,setting,value
Nc1ncnc2c1ncn2[C@@H]1O[C@H](COP(=O)(O)OP(=O)(O)OP(=O)(O)O)[C@@H](O)[C@H]1O [ATP 2Na],30 days survivors,[1]; [3],0/5
same,MST (mean survival time),[1]; [3],8.7 days
same,T/C,[1]; [3],98%
same,30 days survivors,[1]; [4],0/5
same,MST (mean survival time),[1]; [4],9.2 days
same,T/C,[1]; [4],103%
same,30 days survivors,[1]; [5],0/5
same,MST (mean survival time),[1]; [5],8.6 days
same,T/C,[1]; [5],97%
same,Effect on lifespan of tumor-bearing mice,[1]; [6],not effective
Nc1ccn([C@@H]2O[C@H](COP(=O)(O)O)[C@@H](O)[C@H]2O)c(=O)n1 [CMP],Inhibition of enzyme activity,[2]; [7],not inhibitory
NC(=O)c1ccc[n+]([C@@H]2O[C@H](COP(=O)([O-])OP(=O)(O)OC[C@H]3O[C@@H](n4cnc5c(N)ncnc54)[C@H](O)[C@@H]3O)[C@@H](O)[C@H]2O)c1 [NAD],Inhibition of enzyme activity,[2]; [7],not inhibitory
Nc1ncnc2nc[nH]c12 [adenine],Inhibition of enzyme activity,[2]; [7],not inhibitory
Nc1ncnc2c1ncn2[C@@H]1O[C@H](CO)[C@@H](O)[C@H]1O [adenosine],Inhibition of enzyme activity,[2]; [7],not inhibitory
Nc1ccn([C@@H]2O[C@H](CO)[C@@H](O)[C@H]2O)c(=O)n1 [cytidine],Inhibition of enzyme activity,[2]; [7],not inhibitory
Nc1cc[nH]c(=O)n1 [cytosine],Inhibition of enzyme activity,[2]; [7],not inhibitory
Nc1nc2c(ncn2[C@H]2C[C@H](O)[C@@H](COP(=O)(O)OP(=O)(O)O)O2)c(=O)[nH]1 [d-GDP],Inhibition of enzyme activity,[2]; [8],marked inhibition
Nc1nc2c(ncn2[C@H]2C[C@H](O)[C@@H](COP(=O)(O)OP(=O)(O)OP(=O)(O)O)O2)c(=O)[nH]1 [d-GTP],Inhibition of enzyme activity,[2]; [8],marked inhibition
Nc1nc2nc[nH]c2c(=O)[nH]1 [guanine],Inhibition of enzyme activity,[2]; [8],marked inhibition
Nc1nc2c(ncn2[C@@H]2O[C@H](CO)[C@@H](O)[C@H]2O)c(=O)[nH]1 [guanosine],Inhibition of enzyme activity,[2]; [8],marked inhibition
O=c1[nH]cnc2nc[nH]c12 [hypoxanthine],Inhibition of enzyme activity,[2]; [7],not inhibitory
OC[C@H]1O[C@@H](n2cnc3c(O)ncnc32)[C@H](O)[C@@H]1O [inosine],Inhibition of enzyme activity,[2]; [7],not inhibitory
"Nc1ncnc2c1ncn2[C@@H]1O[C@H](COP(=O)(O)OP(=O)(O)OP(=O)(O)O)[C@@H](OP(=O)(O)OP(=O)(O)O)[C@H]1O [pppApp 7Li, adenosine 5'-triphosphate 3' (2')-diphosphate]",30 days survivors,[1]; [3],1/5
same,MST (mean survival time),[1]; [3],14.0 days
same,T/C,[1]; [3],157%
same,30 days survivors,[1]; [4],1/5
same,MST (mean survival time),[1]; [4],12.5 days
same,T/C,[1]; [4],140%
same,30 days survivors,[1]; [5],2/5
same,MST (mean survival time),[1]; [5],16.8 days
same,T/C,[1]; [5],189%
same,Accumulation of abdominal dropsy,[1]; [6],distinctly suppressed
same,Effect on lifespan of tumor-bearing mice,[1]; [6],prolonged the lifespan
same,Toxicity to the mice,[1]; [6],without causing toxicity
O=c1cc[nH]c(=O)[nH]1 [uracil],Inhibition of enzyme activity,[2]; [7],not inhibitory
O=c1ccn([C@@H]2O[C@H](CO)[C@@H](O)[C@H]2O)c(=O)[nH]1 [uridine],Inhibition of enzyme activity,[2]; [7],not inhibitory
O=c1[nH]c(=O)c2[nH]cnc2[nH]1 [xanthine],Inhibition of enzyme activity,[2]; [7],not inhibitory
